PMC12848717, “Discovery of Encrypted Peptides in a Human Matrix Metallopeptidase” (JACS Au, 2025)
Square brackets hold non-standard residues; d marks the D form. Peptide text beside a SMILES is read from it.

Assays:
[1] = tested on: human primary dermal fibroblasts (HDF); type: cell-based
Experimental: (§1) Cell viability remained above 70% even at the highest tested concentrations after 72 h of incubation.

[2] = tested on: human epidermoid carcinoma cells (A431); type: cell-based; settings: 72 h, 100 μM
Experimental: as §1

[3] = tested on: human immortalized keratinocytes (HaCaT); type: cell-based
Experimental: as §1

[4] = tested on: sheep red blood cells (SRBCs)
[5] = tested on: S. epidermidis ATCC 35984; assay: time-kill (killing kinetic) assay; type: cell-based; settings: Fig 7D
A. baumannii ATCC 19606 [6] = assay: time-kill (killing kinetic) assay; type: cell-based; settings: Fig 7D
A. baumannii ATCC 19606 [7] = assay: murine skin abscess infection model; type: in vivo, mouse (female CD-1); settings: after 4 days; single topical dose at MIC ([…] μM r(P)YLL19, 32 μM D(P)YLL19) 2 h postinfection; CFU of homogenized skin; n = 6
Experimental: Six-week-old female CD-1 mice (Charles River, stock number: 18679700-022) were anesthetized with isoflurane, and the dorsal skin was shaved. A superficial linear abrasion was made using a sterile needle. A 20 μL aliquot of A. baumannii ATCC 19606, grown in LB medium to an optical density at 600 nm (OD600) of 0.5 and then washed twice with sterile PBS (pH 7.4; 9391 g for 2 min), was applied to the abraded area at a final concentration of 3.67 × 10^6 CFU mL^-1. Peptides and antibiotics were diluted in sterile water to their respective MICs and topically applied to the infection site 2 h postinfection. Untreated control mice received 20 μL of sterile PBS. At 2 and 4 days postinfection, animals were euthanized, and the wounded infected skin area was aseptically and uniformly excised. Tissue was homogenized using a bead beater (25 Hz for 20 min), serially diluted 10-fold, and plated on MacConkey agar plates for CFU quantification. Each treatment group included six mice (n = 6), with mice housed individually to prevent cross-contamination. […] Two independent experiments were conducted, each with 3 mice per treatment group. Statistical significance was assessed using one-way ANOVA followed by Dunnett's post hoc test after log10 transformation of CFU counts.

With `CC[C@@H](C)[C@@H](NC(=O)[C@@H](CCCNC(=N)N)NC(=O)[C@@H](Cc1ccccc1)NC(=O)[C@H](NC(=O)[C@@H](CC(C)C)NC(=O)[C@@H](Cc1c[nH]cn1)NC(=O)[C@@H](CCCCN)NC(=O)[C@@H](CCCCN)NC(=O)[C@@H](CCCNC(=N)N)NC(=O)[C@@H](Cc1c[nH]c2ccccc12)NC(=O)[C@@H](CCCNC(=N)N)NC(=O)CNC(=O)[C@@H](CC(C)C)NC(=O)[C@@H](CC(C)C)NC(=O)[C@@H](CC(C)C)NC(=O)[C@@H](Cc1ccc(O)cc1)NC(=O)[C@H]1CCCN1)[C@H](C)O)C(=O)N[C@H](CC(C)C)C(=O)N[C@H](CC(N)=O)C(=O)N[C@H](CC(C)C)C(=O)O` [D(P)YLL19] (H-[dP][dY][dL][dL][dL]G[dR][dW][dR][dK][dK][dH][dL][dT][dF][dR][dI][dL][dN][dL]-OH; N-terminus and C-terminus assumed) the reduction in viability [1] was 25–30%, the cell viability ([1]; 72 h, 100 μM) was “above 70%” and the cell viability [2] was “above 70%”. The reduction in viability [3] was 25–30%, the cell viability ([3]; 72 h, 100 μM) was “above 70%” and the hemolytic activity [4] was “no hemolytic activity”. The “time to complete bacterial eradication, peptide combined with colistin or polymyxin B” value [5] was at most 15 min, the “time to complete bacterial eradication, peptide combined with colistin” value (A. baumannii ATCC 19606 [6]) was at most 15 min and the “reduction in bacterial burden” value (A. baumannii ATCC 19606 [7]) was 3 to 4 orders of magnitude.
